{"source": "patent US20240151711A1", "about": "“ADJUVANT FOR VACCINE DEVELOPMENT” (priority 2021, published 2024)", "key": {"tumor": {"system": "tumor", "conditions": "intra-tumoral administration; cited from earlier work"}, "[1]": {"system": "BMDCs derived from wild-type mice or Sting knockout mice", "test": "Identification of key adjuvant component in mRNA vaccine (EDOPC replaced with DOTAP)", "assay_type": "cell-based, mouse", "conditions": "Vehicle or MVP prepared with EDOPC or DOTAP; FIG. 22", "description": "In order to determine the role of the charged lipid (i.e., EDOPC), positively charged 1,2-dioleoyl-3-trimethylammonium-propane (DOTAP) was used to replace EDOPC to prepare vehicle and mRNA vaccine. The resulting vehicle (Vehicle with DOTAP) and mRNA vaccine (MVP with DOTAP) were applied to compare with the parental vehicle (Vehicle with EDOPC) and mRNA vaccine (MVP with EDOPC) on stimulation of cytokine expression after BMDC treatment."}, "BMDCs": {"system": "BMDCs", "test": "Stimulation of cytokine production by mRNA vaccine in BMDCs (ELISA)", "assay_type": "cell-based, mouse", "conditions": "24 hours; FIG. 20", "procedure": "GM-CSF/IL4-induced BMDCs were seeded into 24-well plates at a seeding density of 5×10^5 cells/well, and treated with PBS control, the TLR7 agonist imiquimod, mRNA-free vehicle control, mRNA core control, or mRNA vaccine (MVP) for 24 hours. Cell growth media were collected and IFN-b and TNF-α levels were measured with ELISA assay (FIG. 20). To determine pathways that play important roles on stimulation of cytokine production, BMDCs were induced from bone marrow cells collected from wild-type mice, Sting knockout mice, and Tlr7 knockout mice. Cells were treated with PBS control, mRNA-free vehicle control, mRNA core control, or mRNA vaccine (MVP) for 24 hours, and cell growth media were collected 24 hours later for measurement of cytokine levels."}}}
{"compound": "Cc1ccc2c(=O)c3cccc(CC(=O)O)c3oc2c1C", "note": "[DMXAA, 5,6-dimethylxanthenone-4-acetic acid]", "values": [{"measurement": "antitumor immunity", "setting": "tumor", "result": "strong antitumor immunity"}]}
{"compound": "CCCCCCCC/C=C\\CCCCCCCC(=O)OC[C@@H](COP(=O)(OCC)OCC[N+](C)(C)C)OC(=O)CCCCCCC/C=C\\CCCCCCCC", "note": "(stereo partly shown) [EDOPC, 1,2-dioleoyl-sn-glycero-3-ethylphosphocholine]", "values": [{"measurement": "IFN-β level in growth media", "setting": "[1]", "result": "essential for STING-dependent stimulation"}]}
{"compound": "CC(C)Cn1cnc2c(N)nc3ccccc3c21", "note": "[imiquimod]", "values": [{"measurement": "IFN-β level in growth media", "setting": "BMDCs", "result": "same as potent in stimulating IFN-β expression"}, {"measurement": "TNF-α level in growth media", "setting": "BMDCs", "result": "same as potent in stimulating TNF-α expression"}]}
